# Values of other authors, collected in paper PMC8679591, “FAPI-74 PET/CT Using Either ^18F-AlF or Cold-Kit ^68Ga Labeling: Biodistribution, Radiation Dosimetry, and Tumor Delineation in Lung Cancer Patients” (Journal of Nuclear Medicine, 2021).
row,Structure (SMILES),Effective dose
1,N[C@@H](C[C@H](CCC[18F])C(=O)O)C(=O)O [(S)-4-(3-^18F-fluoropropyl)-L-glutamic acid],0.032 mSv/MBq
2,N[C@@H](Cc1ccc(OCC[18F])cc1)C(=O)O [O-(2-^18F-fluoroethyl)-L-tyrosine],0.016 mSv/MBq
3,"Cc1cn([C@H]2C[C@H]([18F])[C@@H](CO)O2)c(=O)[nH]c1=O [^18F-3′-deoxy-3′-^18F-fluorothymidine, 3′-deoxy-3′-^18F-fluorothymidine]",0.028 mSv/MBq
4,O=C(O)CC[C@H](NC(=O)N[C@@H](CCCCNC(=O)[C@H](Cc1ccc2ccccc2c1)NC(=O)c1ccc(CNC(=O)[C@H](CCC(=O)O)NC(=O)[C@H](CCC(=O)O)NC(=O)c2ccc([18F])nc2)cc1)C(=O)O)C(=O)O [^18F-PSMA-1007],0.022 mSv/MBq
5,C[N+](C)(CF)CCO [^18F-fluorocholine],0.031 mSv/MBq
6,O=[N+]([O-])c1nccn1CC(O)C[18F] (centres unmarked) [^18F-fluoromisonidazole],0.013 mSv/MBq
7,CNc1ccc(/C=C/c2ccc(OCCOCCOCC[18F])cc2)cc1 [^18F-flurbetaben],0.015 mSv/MBq
8,CC(C)(C)n1ncc(OCc2ccc(COCC[18F])cc2)c(Cl)c1=O [^18F-flurpiridaz],0.019 mSv/MBq
9,"N#C[C@@H]1CCCN1C(=O)CNC(=O)c1ccnc2ccc(OCCCN3CCN(C(=O)CN4CCN(CC(=O)O)CCN(CC(=O)O)CCN(CC(=O)O)CC4)CC3)cc12 [^68Ga-FAPI-2, metal not drawn]",0.008–0.015 mSv/MBq
10,"N#C[C@@H]1CC(F)(F)CN1C(=O)CNC(=O)c1ccnc2ccc(OCCCN3CCN(C(=O)CN4CCN(CC(=O)O)CCN(CC(=O)O)CCN(CC(=O)O)CC4)CC3)cc12 [^68Ga-FAPI-4, metal not drawn]",0.008–0.015 mSv/MBq
11,O=C([O-])CN(CCN(CC(=O)[O-])Cc1cc(CCC(=O)NCCCCCC(=O)NCCCC[C@H](NC(=O)N[C@@H](CCC(=O)O)C(=O)O)C(=O)O)ccc1[O-])Cc1cc(CCC(=O)O)ccc1[O-].[68Ga+3].[OH3+] [^68Ga-PSMA-11],0.023 mSv/MBq
